In PubChem BioAssay AID330 (DTP/NCI, 2004):
Where “and” joins values, the source holds several entries; their conditions need not be identical. Equal entries are not always repeated. Inconclusive results and toxic doses are left out.

Tested on: P388 leukemia ip, CD2F1 mice, survival T/C
Assay: NCI In Vivo Anticancer Drug Screen. Data for tumor model P388 Leukemia (intraperitoneal) in CD2F1 (CDF1) mice
Settings: endpoint: median survival time, higher = longer survival
Summary of the method: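 Mice carrying the transplanted tumor received test compound or vehicle. Survival was recorded in each group, and the value is the treated-group measurement divided by that of the vehicle-treated control group.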

[1] = dose: 60.0 mg/kg/injection, schedule: Q01DX005 (ip), vehicle: saline with Tween-80
[2] = dose: 120.0 mg/kg/injection, schedule: Q01DX005 (ip), vehicle: saline with Tween-80
[3] = dose: 240.0 mg/kg/injection, schedule: Q01DX005 (ip), vehicle: saline with Tween-80
[4] = dose: 25.0 mg/kg/injection, schedule: Q01DX009 (ip), vehicle: other
[5] = dose: 50.0 mg/kg/injection, schedule: Q01DX009 (ip), vehicle: other
[6] = dose: 100.0 mg/kg/injection, schedule: Q01DX009 (ip), vehicle: saline with Tween-80
[7] = dose: 200.0 mg/kg/injection, schedule: Q01DX009 (ip), vehicle: saline with Tween-80
[8] = dose: 50.0 mg/kg/injection, schedule: Q01DX005 (ip), vehicle: saline with Tween-80
[9] = dose: 100.0 mg/kg/injection, schedule: Q01DX005 (ip), vehicle: saline with Tween-80
[10] = dose: 200.0 mg/kg/injection, schedule: Q01DX005 (ip), vehicle: saline with Tween-80
[11] = dose: 50.0 mg/kg/injection, schedule: Q01DX009 (ip), vehicle: Klucel (hydroxypropylcellulose) (HPC)
[12] = dose: 100.0 mg/kg/injection, schedule: Q01DX009 (ip), vehicle: Klucel (hydroxypropylcellulose) (HPC)
[13] = dose: 200.0 mg/kg/injection, schedule: Q01DX009 (ip), vehicle: Klucel (hydroxypropylcellulose) (HPC)
[14] = dose: 200.0 mg/kg/injection, schedule: Q01DX001 (ip), vehicle: saline with Tween-80
[15] = dose: 50.0 mg/kg/injection, schedule: Q01DX009 (ip), vehicle: saline with Tween-80
[16] = dose: 50.0 mg/kg/injection, schedule: Q01DX009 (ip), vehicle: saline
[17] = dose: 100.0 mg/kg/injection, schedule: Q01DX009 (ip), vehicle: saline
[18] = dose: 200.0 mg/kg/injection, schedule: Q01DX009 (ip), vehicle: saline
[19] = dose: 12.5 mg/kg/injection, schedule: Q01DX009 (ip), vehicle: saline with Tween-80
[20] = dose: 100.0 mg/kg/injection, schedule: Q04DX003 (ip), vehicle: saline

SMILES: COC1=C(OC)C(=O)C2=C(OCO2)C1=O
- T/C [1]: 104 % of control
- T/C [2]: 100 % of control
- T/C [3]: 107 % of control

SMILES: CNC(=S)NNc1ccc(Cl)c(Cl)c1
- T/C [4]: 112 % of control
- T/C [5]: 108 % of control

SMILES: O=C(Nc1cccc(Br)c1)Oc1ccc(Cl)c2cccnc12
- T/C (dose: 7.5 mg/kg/injection, schedule: Q01DX005 (ip), vehicle: saline with Tween-80): 107 % of control
- T/C (dose: 15.0 mg/kg/injection, schedule: Q01DX005 (ip), vehicle: saline with Tween-80): 103 % of control
- T/C (dose: 30.0 mg/kg/injection, schedule: Q01DX005 (ip), vehicle: saline with Tween-80): 103 % of control and 91 % of control
- T/C [1]: 100 % of control and 111 % of control
- T/C [3]: 88 % of control

SMILES: Cc1ccc(S(=O)(=O)N2CCC2)cc1
- T/C [6]: 90 % of control
- T/C [7]: 95 % of control
- T/C (dose: 400.0 mg/kg/injection, schedule: Q01DX009 (ip), vehicle: saline with Tween-80): 100 % of control

SMILES: CC(C)CCNO
- T/C [8]: 96 % of control
- T/C [9]: 100 % of control
- T/C [10]: 93 % of control

SMILES: Cn1c(Cl)c(/C=N\Nc2cccc([N+](=O)[O-])c2)c2ccccc21
- T/C (dose: 50.0 mg/kg/injection, schedule: Q01DX001 (ip), vehicle: Klucel (hydroxypropylcellulose) (HPC)): 92 % of control
- T/C (dose: 100.0 mg/kg/injection, schedule: Q01DX001 (ip), vehicle: Klucel (hydroxypropylcellulose) (HPC)): 90 % of control
- T/C (dose: 200.0 mg/kg/injection, schedule: Q01DX001 (ip), vehicle: Klucel (hydroxypropylcellulose) (HPC)): 92 % of control

SMILES: CC(C)(O)c1cccc2c(C(C)(C)O)cccc12
- T/C [11]: 88 % of control
- T/C [12]: 97 % of control
- T/C [13]: 93 % of control and 94 % of control
- T/C (dose: 400.0 mg/kg/injection, schedule: Q01DX009 (ip), vehicle: Klucel (hydroxypropylcellulose) (HPC)): 91 % of control

SMILES: CCCCCCCCC(CCc1ccccc1)CCc1ccccc1
- T/C (dose: 50.0 mg/kg/injection, schedule: Q01DX001 (ip), vehicle: saline with Tween-80): 88 % of control
- T/C [14]: 100 % of control

SMILES: O=C1c2ccccc2CC2CCCCC12 (configuration not stated)
- T/C [15]: 103 % of control
- T/C [6]: 102 % of control
- T/C [7]: 108 % of control

SMILES: N#C/C(=C\c1ccc([N+](=O)[O-])o1)[N+](=O)[O-]
- T/C [16]: 103 % of control
- T/C [17]: 93 % of control

SMILES: CC(C)OS(=O)(=O)c1ccc([N+](=O)[O-])cc1
- T/C [16]: 94 % of control
- T/C [17]: 100 % of control
- T/C [18]: 105 % of control

SMILES: COc1ccc(N=C(N=C(NC(=O)c2ccccc2)c2ccccc2)c2ccccc2)cc1
- T/C [15]: 104 % of control and 95 % of control
- T/C [6]: 103 % of control and 92 % of control
- T/C [7]: 100 % of control

SMILES: O=C(Nc1ccc(C(=O)Nc2ccc(C3=NCCCN3)cc2)cc1)Nc1ccc(C2=NCCCN2)cc1
- T/C (dose: 6.25 mg/kg/injection, schedule: Q04DX003 (ip), vehicle: saline with Tween-80): 108 % of control
- T/C [19]: 204 % of control
- T/C (dose: 25.0 mg/kg/injection, schedule: Q01DX009 (ip), vehicle: saline with Tween-80): 122 % of control
- T/C (dose: 25.0 mg/kg/injection, schedule: Q04DX003 (ip), vehicle: saline with Tween-80): 150 % of control
- T/C [20]: 90 % of control

SMILES: CCCS(=O)[O-].CCCS(=O)[O-].[Zn+2]
- T/C (dose: 0.05 mg/kg/injection, schedule: Q01DX009 (ip), vehicle: saline): 103 % of control
- T/C (dose: 0.1 mg/kg/injection, schedule: Q01DX009 (ip), vehicle: saline): 107 % of control
- T/C (dose: 0.2 mg/kg/injection, schedule: Q01DX009 (ip), vehicle: saline): 108 % of control
- T/C (dose: 0.4 mg/kg/injection, schedule: Q01DX009 (ip), vehicle: saline): 99 % of control
- T/C (dose: 0.8 mg/kg/injection, schedule: Q01DX009 (ip), vehicle: saline): 107 % of control
- T/C (dose: 1.6 mg/kg/injection, schedule: Q01DX009 (ip), vehicle: saline): 108 % of control
- T/C (dose: 3.2 mg/kg/injection, schedule: Q01DX009 (ip), vehicle: saline): 101 % of control
- T/C (dose: 6.4 mg/kg/injection, schedule: Q01DX009 (ip), vehicle: saline): 100 % of control
- T/C (dose: 12.8 mg/kg/injection, schedule: Q01DX009 (ip), vehicle: saline): 100 % of control

SMILES: COc1cc2c[n+]3c4c(cccc4c2cc1OC)CC3
- T/C (dose: 25.0 mg/kg/injection, schedule: Q01DX009 (ip), vehicle: water): 108 % of control
- T/C (dose: 50.0 mg/kg/injection, schedule: Q01DX009 (ip), vehicle: water): 118 % of control
- T/C (dose: 100.0 mg/kg/injection, schedule: Q01DX009 (ip), vehicle: water): 114 % of control

SMILES: C1CC[C@H]2OCN[C@@H]2C1
- T/C (dose: 200.0 mg/kg/injection, schedule: Q04DX002 (ip), vehicle: Klucel (hydroxypropylcellulose) (HPC)): 118 % of control
- T/C (dose: 400.0 mg/kg/injection, schedule: Q04DX002 (ip), vehicle: Klucel (hydroxypropylcellulose) (HPC)): 115 % of control

SMILES: Cc1cc(C)n2ncc(Br)c2n1
- T/C [8]: 100 % of control
- T/C [9]: 100 % of control
- T/C [10]: 94 % of control

SMILES: O=C1CC(O)C2C(=O)c3c(c(Cl)c4ccccc4c3O)C(=O)C2C1 (configuration not stated)
- T/C (dose: 60.0 mg/kg/injection, schedule: Q01DX005 (ip), vehicle: Klucel (hydroxypropylcellulose) (HPC)): 94 % of control
- T/C (dose: 120.0 mg/kg/injection, schedule: Q01DX005 (ip), vehicle: Klucel (hydroxypropylcellulose) (HPC)): 94 % of control
- T/C (dose: 240.0 mg/kg/injection, schedule: Q01DX005 (ip), vehicle: Klucel (hydroxypropylcellulose) (HPC)): 93 % of control

SMILES: O=C(O)c1ccccc1SSc1ccccc1C(=O)O
- T/C [11]: 96 % of control
- T/C [12]: 102 % of control

SMILES: CCOC(=O)c1ccc(N=Cc2cccs2)cc1
- T/C [16]: 88 % of control
- T/C [17]: 92 % of control
- T/C [18]: 102 % of control

SMILES: CCN(CC)CCCC(C)Nc1c2ccc(C)cc2nc2ccc(OC)cc12 (configuration not stated)
- T/C [19]: 103 % of control
- T/C [15]: 112 % of control

SMILES: O=C(O)C1Cc2c([nH]c3ccccc23)C(C(=O)O)N1 (configuration not stated)
- T/C (dose: 50.0 mg/kg/injection, schedule: Q04DX003 (ip), vehicle: saline): 95 % of control
- T/C [20]: 95 % of control
- T/C (dose: 200.0 mg/kg/injection, schedule: Q04DX003 (ip), vehicle: saline): 93 % of control

SMILES: CCCCCCCCCCCCCCCCCCOC(=O)CCN
- T/C [8]: 101 % of control
- T/C [9]: 109 % of control
- T/C [10]: 113 % of control

SMILES: COc1ccccc1NC(=O)C1C(=O)C(=O)N(c2ccccc2OC)C1=O (configuration not stated)
- T/C [11]: 106 % of control
- T/C [12]: 106 % of control
- T/C [13]: 100 % of control

SMILES: Cc1cc(Cl)ccc1NC(=O)C(=O)C(C#N)c1c(Cl)cccc1Cl (configuration not stated)
- T/C (dose: 100.0 mg/kg/injection, schedule: Q04DX002 (ip), vehicle: saline with Tween-80): 101 % of control
- T/C (dose: 200.0 mg/kg/injection, schedule: Q04DX002 (ip), vehicle: saline with Tween-80): 105 % of control
- T/C (dose: 400.0 mg/kg/injection, schedule: Q04DX002 (ip), vehicle: saline with Tween-80): 100 % of control

SMILES: COC(=O)/C(=C/C=C/c1ccccc1)N=[N+]=[N-]
- T/C (dose: 100.0 mg/kg/injection, schedule: Q01DX001 (ip), vehicle: saline with Tween-80): 114 % of control
- T/C [14]: 105 % of control
- T/C (dose: 400.0 mg/kg/injection, schedule: Q01DX001 (ip), vehicle: saline with Tween-80): 100 % of control

SMILES: C#CCOCCCC(=C)C
- T/C (dose: 3.12 mg/kg/injection, schedule: Q01DX005 (ip), vehicle: saline): 103 % of control
- T/C (dose: 6.25 mg/kg/injection, schedule: Q01DX005 (ip), vehicle: saline): 99 % of control
- T/C (dose: 12.5 mg/kg/injection, schedule: Q01DX005 (ip), vehicle: saline): 100 % of control
- T/C (dose: 25.0 mg/kg/injection, schedule: Q01DX005 (ip), vehicle: saline): 100 % of control

SMILES: COc1ccc2nccc(CC(O)C(Cl)(Cl)Cl)c2c1 (configuration not stated)
- T/C [8]: 105 % of control
- T/C [9]: 93 % of control
- T/C [10]: 101 % of control

SMILES: Cc1ccc2c(c1)-c1nc3nnnn3nc1C(C)(C)O2
- T/C [1]: 92 % of control
- T/C [2]: 95 % of control
- T/C [3]: 98 % of control

SMILES: O=C(COc1ccccc1)OC(=O)COc1ccccc1
- T/C [4]: 109 % of control
- T/C [5]: 100 % of control
- T/C (dose: 100.0 mg/kg/injection, schedule: Q01DX009 (ip), vehicle: other): 93 % of control
- T/C (dose: 200.0 mg/kg/injection, schedule: Q01DX009 (ip), vehicle: other): 98 % of control
